Five compounds from patent US5591714A, “Derivatives of A82846” (priority 1994, dated 1997) can be followed below.

The test system of assay [1] is Streptococcus pyogenes. Nature of the assay: In vivo activity, experimentally infected mice (ED50). The conditions noted are these: Streptococcus pyogenes infection; doses administered subcutaneously to mice 1 and 4 hours postinfection.
Assay [2] deals with Escherichia coli TEM. Nature of the assay: MIC, standard agar-dilution assay. The assay is classed as cell-based. The protocol:
(§1) The formula I compounds have in vitro and in vivo activity against Gram-positive pathogenic bacteria. The MIC's were determined using a standard agar-dilution assays.

In assay [3] the test system is Haemophilus influenzae C.L. Nature of the assay: MIC, standard agar-dilution assay. In kind it is cell-based. As to the method:
as §1

Assay [4] has as its system Staphylococcus epidermidis EPI270. Nature of the assay: MIC, standard agar-dilution assay. In kind it is cell-based. The protocol: as §1
For assay [5], the system named is Klebsiella pneumoniae X26. Nature of the assay: MIC, standard agar-dilution assay. The assay is classed as cell-based. The protocol: as §1
Assay [6] deals with Escherichia coli EC14. Nature of the assay: MIC, standard agar-dilution assay. The assay is classed as cell-based. As to the method:
as §1

Assay [7] deals with Haemophilus influenzae 76. Nature of the assay: MIC, standard agar-dilution assay. The assay is classed as cell-based. As to the method: as §1
Assay [8] relates to Staphylococcus aureus NRRL X1.1. Nature of the assay: MIC, standard agar-dilution assay. The assay is classed as cell-based. As to the method:
as §1

Assay [9] deals with Staphylococcus aureus X400. Nature of the assay: MIC, standard agar-dilution assay. The assay is classed as cell-based. The protocol: as §1
Assay [10] deals with Klebsiella pneumoniae KAE. Nature of the assay: MIC, standard agar-dilution assay. The assay is classed as cell-based. As to the method:
as §1

For assay [11], the system named is Escherichia coli N10. Nature of the assay: MIC, standard agar-dilution assay. In kind it is cell-based. The protocol: as §1
For assay [12], the system named is Staphylococcus aureus V41. Nature of the assay: MIC, standard agar-dilution assay. The assay is classed as cell-based. The protocol:
as §1

Assay [13] concerns Klebsiella pneumoniae X68. Nature of the assay: MIC, standard agar-dilution assay. The assay is classed as cell-based. The protocol: as §1
Assay [14] has as its system Streptococcus pyogenes C203. Nature of the assay: MIC, standard agar-dilution assay. In kind it is cell-based. The protocol:
as §1

For assay [15], the system named is Staphylococcus epidermidis 222. Nature of the assay: MIC, standard agar-dilution assay. In kind it is cell-based. As to the method:
as §1

Assay [16] relates to Streptococcus pneumoniae. Nature of the assay: In vivo activity, experimentally infected mice (ED50). The conditions noted are these: Streptococcus pneumoniae infection; doses administered subcutaneously to mice 1 and 4 hours postinfection.
The test system of assay [17] is Enterococcus faecium X66. Nature of the assay: MIC, standard agar-dilution assay. In kind it is cell-based. The protocol: as §1
^b Formerly Streptococcus faecium X66

The subject of assay [18] is vancomycin-resistant (Vanco^r) E. faecium and E. faecalis. Nature of the assay: Susceptibility of vancomycin-resistant enterococci, agar-dilution MIC. The conditions noted are these: for Geometric Mean MIC, Vanco^r Strains: n = 25 strains, end points read after 24-hour incubation. In kind it is cell-based. As to the method: (§2) End points were read after 24-hour incubation. The ratio was calculated by dividing the mean MIC of the compound against the vancomycin-resistant strains by the mean MIC of the compound against the vancomycin-susceptible strains.

Assay [19] deals with Staphylococcus aureus. Nature of the assay: In vivo activity, experimentally infected mice (ED50). The settings on record: Staphylococcus aureus infection; doses administered subcutaneously to mice 1 and 4 hours postinfection.
In assay [20] the test system is Enterococcus faecalis 2041. Nature of the assay: MIC, standard agar-dilution assay. The assay is classed as cell-based. The protocol:
as §1
^c Formerly Streptococcus faecalis 2041

For assay [21], the system named is Streptococcus pneumoniae Park 1. In kind it is cell-based. As to the method:
as §1

Assay [22] deals with Staphylococcus aureus S13E. In kind it is cell-based. As to the method:
as §1

The test system of assay [23] is vancomycin-susceptible (Vanco^s) E. faecium and E. faecalis. Nature of the assay: Susceptibility of vancomycin-susceptible enterococci, agar-dilution MIC. In kind it is cell-based. The conditions noted are these: n = 34 strains; end points read after 24-hour incubation. As to the method:
as §2

Values after ≈ are worked out from the molar mass of the structure shown.

As for `CCN(CC)c1ccc(CNC2(C)CC(OC3C(Oc4c5cc6cc4Oc4ccc(cc4Cl)C(OC4CC(C)(N)C(O)C(C)O4)C4NC(=O)C(NC(=O)C6NC(=O)C(CC(N)=O)NC(=O)C(NC(=O)C(CC(C)C)NC)C(O)c6ccc(c(Cl)c6)O5)c5ccc(O)c(c5)-c5c(O)cc(O)cc5C(C(=O)O)NC4=O)OC(CO)C(O)C3O)OC(C)C2O)cc1` (stereo not drawn) [Compound 56], the ED50 result in [1] was “.06 mg/kg/2”; in assay [16], “.09 mg/kg/2”; in assay [19], 0.65 mg/kg/2. In addition, the MIC in assay [2] is greater than 128 µg/mL; in [3], greater than 128 µg/mL; in assay [4] it was 2 µg/mL (≈ 1.14 µM); in assay [5], greater than 128 µg/mL; in assay [6], greater than 128 µg/mL; in assay [7], greater than 128 µg/mL. Also, the MIC result in assay [8] is “.5 µg/mL”; in assay [9], 1 µg/mL (≈ 0.57 µM); in assay [10], greater than 128 µg/mL; in [11], greater than 128 µg/mL; in [12], “.5 µg/mL”; in assay [13], greater than 128 µg/mL. Further, the MIC entry in [14] was “.5 µg/mL”; in assay [15], “.5 µg/mL”; in assay [17], 1 µg/mL (≈ 0.57 µM); in [20], “.5 µg/mL”; in assay [21], “.5 µg/mL”; in assay [22], 1 µg/mL (≈ 0.57 µM). Further, the “Ratio (mean MIC vancomycin-resistant strains / mean MIC vancomycin-susceptible strains)” value in assay [18] turned out to be 7.0. For the same compound, the “Geometric Mean MIC, Vanco^r Strains” value in assay [18] worked out at 5.1 µg/mL. Also, the “Geometric Mean MIC, Vanco^s Strains” value in [23] stood at 0.73 µg/mL.
Consider `CN[C@H](CC(C)C)C(=O)N[C@H]1C(=O)N[C@@H](CC(N)=O)C(=O)N[C@H]2C(=O)N[C@H]3C(=O)N[C@H](C(=O)N[C@H](C(=O)O)c4cc(O)cc(O)c4-c4cc3ccc4O)[C@H](O[C@H]3C[C@](C)(N)[C@@H](O)[C@H](C)O3)c3ccc(c(Cl)c3)Oc3cc2cc(c3O[C@@H]2O[C@H](CO)[C@@H](O)[C@H](O)[C@H]2O[C@H]2C[C@](C)(NCCc3ccccc3)[C@@H](O)[C@H](C)O2)Oc2ccc(cc2Cl)[C@H]1O` [Compound 43], for which the ED50 in [1] is listed as 0.38 mg/kg/2; in assay [16], 0.11 mg/kg/2; in assay [19], 0.125 mg/kg/2. In addition, the MIC is greater than 128 µg/mL in assay [2]; greater than 128 µg/mL in [3]; 1 µg/mL (≈ 0.589 µM) in assay [4]; greater than 128 µg/mL in assay [5]; greater than 128 µg/mL in assay [6]; greater than 128 µg/mL in assay [7]. In addition, the MIC entry in assay [8] is “.25 µg/mL”; in assay [9], 1 µg/mL (≈ 0.589 µM); in assay [10] it was greater than 128 µg/mL; in assay [11], greater than 128 µg/mL; in assay [12], “.5 µg/mL”; in [13] it was greater than 128 µg/mL. Besides, the MIC result in [14] is “.5 µg/mL”; in [15] it was “.25 µg/mL”; in assay [17] it was 1 µg/mL (≈ 0.589 µM); in assay [20], “.5 µg/mL”; in assay [21] it was “.125 µg/mL”; in [22], 1 µg/mL (≈ 0.589 µM). Besides, the “Ratio (mean MIC vancomycin-resistant strains / mean MIC vancomycin-susceptible strains)” value in assay [18] is listed as 5.2. Besides, the “Geometric Mean MIC, Vanco^r Strains” value in assay [18] is 4.0 µg/mL. Further, the “Geometric Mean MIC, Vanco^s Strains” value in assay [23] stood at 0.77 µg/mL.
Consider `CCCCCN[C@@]1(C)C[C@H](O[C@H]2[C@H](Oc3c4cc5cc3Oc3ccc(cc3Cl)[C@@H](O)[C@@H](NC(=O)[C@@H](CC(C)C)N(C)CCCCC)C(=O)N[C@@H](CC(N)=O)C(=O)N[C@H]5C(=O)N[C@H]3C(=O)N[C@H](C(=O)N[C@H](C(=O)O)c5cc(O)cc(O)c5-c5cc3ccc5O)[C@H](O[C@H]3C[C@](C)(N)[C@@H](O)[C@H](C)O3)c3ccc(cc3)O4)O[C@H](CO)[C@@H](O)[C@@H]2O)O[C@@H](C)[C@@H]1O` [Compound 7], for which the ED50 in assay [1] was found to be 0.83 mg/kg/2; in assay [16], 0.98 mg/kg/2; in assay [19], 4.09 mg/kg/2. Besides, the MIC was greater than 128 µg/mL in assay [2]; greater than 128 µg/mL in assay [3]; 2 µg/mL (≈ 1.18 µM) in assay [4]; greater than 128 µg/mL in [5]; greater than 128 µg/mL in assay [6]; greater than 128 µg/mL in [7]. In addition, the MIC was 1 µg/mL (≈ 0.589 µM) in assay [8]; 1 µg/mL (≈ 0.589 µM) in [9]; greater than 128 µg/mL in [10]; greater than 128 µg/mL in [11]; 1 µg/mL (≈ 0.589 µM) in assay [12]; greater than 128 µg/mL in [13]. Moreover, the MIC result in [14] is “.5 µg/mL”; in assay [15], 1 µg/mL (≈ 0.589 µM); in assay [17], 2 µg/mL (≈ 1.18 µM); in [20] it was 2 µg/mL (≈ 1.18 µM); in assay [21], “.5 µg/mL”; in assay [22], 1 µg/mL (≈ 0.589 µM).
For `CN[C@H](CC(C)C)C(=O)N[C@H]1C(=O)N[C@@H](CC(N)=O)C(=O)N[C@H]2C(=O)N[C@H]3C(=O)N[C@H](C(=O)N[C@H](C(=O)O)c4cc(O)cc(O)c4-c4cc3ccc4O)[C@H](O[C@H]3C[C@](C)(N)[C@@H](O)[C@H](C)O3)c3ccc(cc3)Oc3cc2cc(c3O[C@@H]2O[C@H](CO)[C@@H](O)[C@H](O)[C@H]2O[C@H]2C[C@](C)(NCCc3ccccc3)[C@@H](O)[C@H](C)O2)Oc2ccc(cc2Cl)[C@H]1O` [Compound 24], the ED50 in assay [1] is reported as 0.09 mg/kg/2; in [16], 0.25 mg/kg/2; in [19], 0.72 mg/kg/2. In addition, the MIC was greater than 128 µg/mL in assay [2]; greater than 128 µg/mL in assay [3]; “.5 µg/mL” in [4]; greater than 128 µg/mL in [5]; greater than 128 µg/mL in assay [6]; greater than 128 µg/mL in assay [7]. Further, the MIC entry was “.5 µg/mL” in assay [8]; 1 µg/mL (≈ 0.602 µM) in [9]; greater than 128 µg/mL in assay [10]; greater than 128 µg/mL in assay [11]; “.5 µg/mL” in [12]; greater than 128 µg/mL in [13]. The MIC entry was “.25 µg/mL” in assay [14]; “.5 µg/mL” in assay [15]; “.5 µg/mL” in assay [17]; “.5 µg/mL” in [20]; “.25 µg/mL” in [21]; 1 µg/mL (≈ 0.602 µM) in assay [22].
In the case of `CN[C@H](CC(C)C)C(=O)N[C@H]1C(=O)N[C@@H](CC(N)=O)C(=O)N[C@H]2C(=O)N[C@H]3C(=O)N[C@H](C(=O)N[C@H](C(=O)O)c4cc(O)cc(O)c4-c4cc3ccc4O)[C@H](O[C@H]3C[C@](C)(N)[C@@H](O)[C@H](C)O3)c3ccc(cc3)Oc3cc2cc(c3O[C@@H]2O[C@H](CO)[C@@H](O)[C@H](O)[C@H]2O[C@H]2C[C@](C)(NCc3ccccc3)[C@@H](O)[C@H](C)O2)Oc2ccc(cc2Cl)[C@H]1O` [Compound 10], the ED50 was 0.2 mg/kg/2 in [1], 0.4 mg/kg/2 in assay [16] and 0.46 mg/kg/2 in assay [19]. Also, the MIC in assay [2] is greater than 128 µg/mL; in [3] it was greater than 128 µg/mL; in [4], “.25 µg/mL”; in [5], greater than 128 µg/mL; in assay [6], greater than 128 µg/mL; in [7], greater than 128 µg/mL. For the same compound, the MIC result in [8] is “.25 µg/mL”; in assay [9], “.5 µg/mL”; in [10] it was greater than 128 µg/mL; in [11], greater than 128 µg/mL; in assay [12], “.25 µg/mL”; in assay [13], greater than 128 µg/mL. Besides, the MIC entry in assay [14] was “.25 µg/mL”; in assay [15] it was “.25 µg/mL”; in [17], “.25 µg/mL”; in [20], “.5 µg/mL”; in assay [21], “.125 µg/mL”; in assay [22], “.125 µg/mL”.
